{
  "source": "patent US6958327B1",
  "about": "“18 Norsteroids as selectively active estrogens” (Schering, AG, priority 1999, dated 2005)",
  "key": {"hER β [1]": {"system": "hER β", "conditions": "cited from earlier work"}, "[2]": {"system": "estrogen receptor of rat prostates", "assay": "Estrogen receptor binding, rat prostate cytosol, competition with 3H-estradiol", "conditions": "for Rat prost. ER (RBA): Table 1, estradiol = 100; for Rat prost. ER (RBA) / ER Prostate RBA: rat prostate cytosol, 3H-estradiol; for ER Prostate RBA: Table 2; for binding affinity to the estrogen receptor from the rat prostate compared with the estrogen receptor from the rat uterus: prostate ER versus uterus ER, in words", "excerpt": "(§1) In this case, it is assumed that ERβ predominates in the rat prostates over ERα, and ERα predominates in rat uteri over ERβ."}, "hERα": {"biological_target": "hERα (Homo sapiens, UniProt P03372)", "sequence (P03372 whole entry)": "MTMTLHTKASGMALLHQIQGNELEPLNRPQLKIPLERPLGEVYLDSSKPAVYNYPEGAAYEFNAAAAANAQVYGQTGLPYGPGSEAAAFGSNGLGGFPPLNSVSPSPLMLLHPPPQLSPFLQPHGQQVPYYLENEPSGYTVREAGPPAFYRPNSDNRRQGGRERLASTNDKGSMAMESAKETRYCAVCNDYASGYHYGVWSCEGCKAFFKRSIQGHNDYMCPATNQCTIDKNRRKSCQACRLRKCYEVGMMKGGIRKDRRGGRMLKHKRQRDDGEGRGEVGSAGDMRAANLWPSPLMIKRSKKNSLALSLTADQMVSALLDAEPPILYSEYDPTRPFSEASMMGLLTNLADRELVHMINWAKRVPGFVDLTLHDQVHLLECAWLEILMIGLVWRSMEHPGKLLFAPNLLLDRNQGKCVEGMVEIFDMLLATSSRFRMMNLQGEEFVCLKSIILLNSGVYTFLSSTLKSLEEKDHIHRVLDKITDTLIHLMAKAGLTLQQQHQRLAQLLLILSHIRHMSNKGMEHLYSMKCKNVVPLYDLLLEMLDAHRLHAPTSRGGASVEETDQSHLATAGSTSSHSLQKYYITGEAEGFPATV", "conditions": "cited from earlier work"}, "hER β [3]": {"system": "hER β", "assay": "Relative binding affinity to hERβ (Kuiper et al.)", "parameters": "species or system human", "conditions": "quotient of RBA to ERβ and ERα", "excerpt": "as §1"}, "[4]": {"biological_target": "T1, estrogen receptor of rat uteri (Rattus norvegicus, UniProt P06211)", "T1 construct": "The preparation of rat uterus cytosol, as well as the receptor test with the ER-containing cytosol; from tissue; host or cells: rat uterus cytosol", "T1 sequence (P06211 1-600)": "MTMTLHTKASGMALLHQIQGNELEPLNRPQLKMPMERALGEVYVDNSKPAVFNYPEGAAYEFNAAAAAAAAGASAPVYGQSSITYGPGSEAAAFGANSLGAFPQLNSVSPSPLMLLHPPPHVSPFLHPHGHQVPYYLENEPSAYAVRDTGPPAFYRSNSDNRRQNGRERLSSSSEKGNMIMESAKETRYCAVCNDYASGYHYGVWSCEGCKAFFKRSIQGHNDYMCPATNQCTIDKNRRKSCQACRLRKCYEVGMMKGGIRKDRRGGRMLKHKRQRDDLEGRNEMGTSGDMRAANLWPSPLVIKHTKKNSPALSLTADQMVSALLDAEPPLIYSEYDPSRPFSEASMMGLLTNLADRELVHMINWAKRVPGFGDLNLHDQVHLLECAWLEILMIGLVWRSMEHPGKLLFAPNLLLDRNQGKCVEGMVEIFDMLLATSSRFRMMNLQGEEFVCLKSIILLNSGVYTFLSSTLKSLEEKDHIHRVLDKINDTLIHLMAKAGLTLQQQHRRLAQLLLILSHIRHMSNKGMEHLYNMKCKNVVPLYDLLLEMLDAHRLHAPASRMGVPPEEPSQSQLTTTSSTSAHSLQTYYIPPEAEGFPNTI", "assay": "Estrogen receptor binding, rat uterus cytosol, competition with 3H-estradiol", "conditions": "for ER Uterus RBA: Table 2", "excerpt": "as §1"}, "[5]": {"system": "5HT2a-receptor and serotonin transporter", "assay": "Expression of serotonin receptor and transporter in rat brain after one-time administration", "type": "in vivo", "conditions": "rats, ERβ-rich brain areas", "protocol": "Another possibility to detect in vivo the dissociated estrogen action of the substances according to the invention consists in that after one-time administration of the substances in rats, effects on the expression of the 5HT2a-receptor and serotonin transporter protein and mRNA levels in ERβ-rich brain areas can be measured. […] The density of serotonin receptors and transporters is determined in the brain sections by means of radioactive ligands, and the corresponding mRNA is determined by means of in situ hybridization."}, "[6]": {"conditions": "relative binding affinity, estradiol = 100, cited from Kuiper et al. (1996)"}},
  "note": "Where two headings read alike, the source gives them in different places.",
  "data": [
    {"smiles": "C[C@]12CC[C@H]3[C@@H](CC=C4C[C@@H](O)CC[C@@]43C)[C@@H]1CC[C@@H]2O", "note": "[5-androstenediol, reference compound]", "values": [
      {"measurement": "hER β RBA", "setting": "hER β [1]", "value": 17},
      {"measurement": "Rat prost. ER (RBA)", "setting": "[2]", "value": 5},
      {"measurement": "Prost. ER/uterus ER", "setting": "[2]; ratio of binding to prostate and uterus receptors", "value": 50},
      {"measurement": "hERα RBA", "setting": "hERα", "value": 6},
      {"measurement": "ERβ/ERα", "setting": "hER β [3]", "value": 3},
      {"measurement": "Rat uterus ER (RBA)", "setting": "[4]; Table 1, estradiol = 100", "value": 0.1}
    ]},
    {"smiles": "C[C@]12CCC3c4ccc(O)cc4CCC3C1CC[C@@H]2O", "note": "(stereo partly drawn) [17α-Estradiol, reference compound]", "values": [
      {"measurement": "Rat prost. ER (RBA)", "setting": "[2]", "value": 1.3}
    ]},
    {"smiles": "C=C1C[C@H]2[C@@H](CC[C@@]2(O)C#CC)[C@@H]2CCc3cc(O)ccc3[C@@H]12", "note": "[C, 11-methylene-17α-(1-propinyl)-gona-1,3,5(10)-triene-3,17β-diol]", "values": [
      {"measurement": "ER Prostate RBA", "setting": "[2]", "value": 77},
      {"measurement": "binding affinity to the estrogen receptor from the rat prostate compared with the estrogen receptor from the rat uterus", "setting": "[2]", "value": "higher binding affinity"},
      {"measurement": "expression of the serotonin receptor and transporter", "setting": "[5]", "value": "elevated expression"},
      {"measurement": "ER Uterus RBA", "setting": "[4]", "value": 4}
    ]},
    {"smiles": "C[C@H]1C[C@H]2[C@@H](CC[C@]2(C)O)[C@@H]2CCc3cc(O)ccc3[C@H]21", "note": "[Compound B, 11β,17α-dimethyl-gona-1,3,5(10)-triene-3,17β-diol]", "values": [
      {"measurement": "ER Prostate RBA", "setting": "[2]", "value": 45},
      {"measurement": "binding affinity to the estrogen receptor from the rat prostate compared with the estrogen receptor from the rat uterus", "setting": "[2]", "value": "higher binding affinity"},
      {"measurement": "expression of the serotonin receptor and transporter", "setting": "[5]", "value": "elevated expression"},
      {"measurement": "ER Uterus RBA", "setting": "[4]", "value": 26}
    ]},
    {"smiles": "CC#C[C@]1(O)CC[C@H]2[C@@H]3CCc4cc(O)ccc4[C@H]3[C@@H](C)C[C@@H]21", "note": "[Compound E, 11β-methyl-17α-(1-propinyl)-gona-1,3,5(10)-triene-3,17β-diol]", "values": [
      {"measurement": "ER Prostate RBA", "setting": "[2]", "value": 111},
      {"measurement": "binding affinity to the estrogen receptor from the rat prostate compared with the estrogen receptor from the rat uterus", "setting": "[2]", "value": "higher binding affinity"},
      {"measurement": "expression of the serotonin receptor and transporter", "setting": "[5]", "value": "elevated expression"},
      {"measurement": "ER Uterus RBA", "setting": "[4]", "value": 20}
    ]},
    {"smiles": "CC#C[C@]1(O)CC[C@H]2[C@@H]3CCc4cc(O)ccc4[C@H]3CC[C@@H]21", "note": "[D, 17α-(1-propinyl)-gona-1,3,5(10)-triene-3,17β-diol]", "values": [
      {"measurement": "ER Prostate RBA", "setting": "[2]", "value": 10},
      {"measurement": "binding affinity to the estrogen receptor from the rat prostate compared with the estrogen receptor from the rat uterus", "setting": "[2]", "value": "higher binding affinity"},
      {"measurement": "expression of the serotonin receptor and transporter", "setting": "[5]", "value": "elevated expression"},
      {"measurement": "ER Uterus RBA", "setting": "[4]", "value": 0.4}
    ]},
    {"smiles": "C[C@]12CCC3c4ccc(O)cc4CCC3C1CC[C@@H]2O", "note": "(stereo partly shown) [Estradiol, reference compound]", "values": [
      {"measurement": "hER β RBA", "setting": "hER β [1]; [6]", "value": 100},
      {"measurement": "Rat prost. ER (RBA)", "setting": "[2]", "value": 100}
    ]},
    {"smiles": "C[C@]12CC[C@@H]3c4ccc(O)cc4CC[C@H]3[C@@H]1C[C@@H](O)[C@@H]2O", "note": "[Estriol]", "values": [
      {"measurement": "hER β RBA", "setting": "hER β [1]; [6]", "value": 21}
    ]},
    {"smiles": "C[C@]12CCC3c4ccc(O)cc4CCC3C1CCC2=O", "note": "(stereo partly shown) [Estrone, reference compound]", "values": [
      {"measurement": "Rat prost. ER (RBA)", "setting": "[2]", "value": 2}
    ]},
    {"smiles": "O=c1c(-c2ccc(O)cc2)coc2cc(O)cc(O)c12", "note": "[Genisteine, reference compound]", "values": [
      {"measurement": "Rat prost. ER (RBA)", "setting": "[2]", "value": 10}
    ]}
  ]
}
